In US6737383B1, “Herbicidal oxadiazolidines” (priority 1999, dated 2004):

What was measured:
kochia [1] = test: Test E kochia; type: in vivo, Kochia scoparia; conditions: Postemergence
How it was run: (§1)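 Postemergence: 60:40 sandy loam/greenhouse potting mix, 1- to 4-leaf stage. Formulation: solvent plus surfactant. Assessment: visual comparison with untreated controls at ~21–28 days.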

chickweed = test: Test E chickweed; type: in vivo, Stellaria media; conditions: Postemergence
How it was run: as §1

spring wheat = test: Test E spring wheat; type: in vivo, Triticum aestivum; conditions: Preemergence
galium = test: Test E galium; type: in vivo, Galium aparine; conditions: Preemergence
ivyleaf speedwell = test: Test E postemergence ivyleaf speedwell; type: in vivo, Veronica hederaefolia
How it was run: as §1

sugar beet = test: Test E sugar beet; type: in vivo, Beta vulgaris; conditions: Postemergence
How it was run: as §1

sunflower [2] = test: Test E sunflower; type: in vivo, Helianthus annuus; conditions: Postemergence
How it was run: as §1

sunflower [3] = test: Test E sunflower; type: in vivo, Helianthus annuus; conditions: Preemergence
redroot pigweed = test: Test E redroot pigweed; type: in vivo, Amaranthus retroflexus; conditions: Preemergence
lambsquarters = test: Test E lambsquarters; type: in vivo, Chenopodium album; conditions: Postemergence
How it was run: as §1

jointed goatgrass [4] = test: Test E jointed goatgrass; type: in vivo, Aegilops cylindrica; conditions: Postemergence
How it was run: as §1

Italian ryegrass = test: Test E Italian ryegrass; type: in vivo, Lolium multiflorum; conditions: Postemergence
How it was run: as §1

scentless chamomile = test: Test E scentless chamomile; type: in vivo, Matricaria inodora; conditions: Postemergence
How it was run: as §1

jointed goatgrass [5] = test: Test E jointed goatgrass; type: in vivo, Aegilops cylindrica; conditions: Preemergence
windgrass = test: Test E windgrass; type: in vivo, Apera spica-venti; conditions: Preemergence
blackgrass = test: Test E blackgrass; type: in vivo, Alopecurus myosuroides; conditions: Postemergence
How it was run: as §1

Russian thistle = test: Test E Russian thistle; type: in vivo, Salsola kali; conditions: Postemergence
How it was run: as §1

downy brome = test: Test E downy brome; type: in vivo, Bromus tectorum; conditions: Postemergence; for Plant response rating, Downy brome: 0 to 100 scale
How it was run: as §1

green foxtail = test: Test E green foxtail; type: in vivo, Setaria viridis; conditions: Postemergence
How it was run: as §1

kochia [6] = test: Test E kochia; type: in vivo, Kochia scoparia; conditions: Preemergence
winter barley = test: Test E winter barley; type: in vivo, Hordeum vulgare; conditions: Postemergence
How it was run: as §1

deadnettle = test: Test E deadnettle; type: in vivo, Lamium amplexicaule; conditions: Preemergence
common poppy = test: Test E common poppy; type: in vivo, Papaver rhoeas; conditions: Postemergence
How it was run: as §1

wild buckwheat = test: Test E wild buckwheat; type: in vivo, Polygonum convolvulus; conditions: Preemergence
black nightshade = test: Test E black nightshade; type: in vivo, Solanum nigra; conditions: Postemergence
How it was run: as §1

annual bluegrass = test: Test E annual bluegrass; type: in vivo, Poa annua; conditions: Preemergence
[7] = Rate 250 g/ha, 0 to 100 scale (0 no effect, 100 complete control)
[8] = Rate 62 g/ha, 0 to 100 scale, 0 no effect, 100 complete control
[9] = Rate 125 g/ha, 0 to 100 scale (0 no effect, 100 complete control)

CCn1c(=O)on(C(=O)N(c2ccc(Cl)cc2)C(C)C)c1=O [Compound 108]
Plant response rating, Kochia (kochia [1]; Rate 62 g/ha, 0 to 100 scale): 20 | Plant response rating, Kochia (kochia [1]; Rate 125 g/ha, 0 to 100 scale): 40 | Plant response rating, Kochia (kochia [1]; [7]): 30 | Plant response rating, Chickweed (chickweed; Rate 62 g/ha, 0 to 100 scale): 10 | Plant response rating, Chickweed (chickweed; Rate 125 g/ha, 0 to 100 scale): 0 | Plant response rating, Chickweed (chickweed; [7]): 0 | Plant response rating, Spring Wheat (spring wheat; [8]): 10 | Plant response rating, Spring Wheat (spring wheat; [9]): 20 | Plant response rating, Spring Wheat (spring wheat; Rate 250 g/ha, 0 to 100 scale): 30 | Plant response rating, Galium (galium; [8]): 95 | Plant response rating, Galium (galium; [9]): 50 | Plant response rating, Galium (galium; Rate 250 g/ha, 0 to 100 scale): 95 | Plant response rating, Veronica hedera (ivyleaf speedwell; Rate 62 g/ha, 0 to 100 scale): 0 | Plant response rating, Veronica hedera (ivyleaf speedwell; Rate 125 g/ha, 0 to 100 scale): 10 | Plant response rating, Veronica hedera (ivyleaf speedwell; [7]): 40 | Plant response rating, Sugar beet (sugar beet; Rate 62 g/ha, 0 to 100 scale): 5 | Plant response rating, Sugar beet (sugar beet; Rate 125 g/ha, 0 to 100 scale): 10 | Plant response rating, Sugar beet (sugar beet; [7]): 20 | Plant response rating, Sunflower (sunflower [2]; Rate 62 g/ha, 0 to 100 scale): 20 | Plant response rating, Sunflower (sunflower [2]; Rate 125 g/ha, 0 to 100 scale): 30 | Plant response rating, Sunflower (sunflower [2]; [7]): 35 | Plant response rating, Sunflower (sunflower [3]; [8]): 0 | Plant response rating, Sunflower (sunflower [3]; [9]): 0 | Plant response rating, Sunflower (sunflower [3]; Rate 250 g/ha, 0 to 100 scale): 10 | Plant response rating, Redroot pigweed (redroot pigweed; [8]): 70 | Plant response rating, Redroot pigweed (redroot pigweed; [9]): 90 | Plant response rating, Redroot pigweed (redroot pigweed; Rate 250 g/ha, 0 to 100 scale): 90 | Plant response rating, Lambsquarters (lambsquarters; Rate 62 g/ha, 0 to 100 scale): 10 | Plant response rating, Lambsquarters (lambsquarters; Rate 125 g/ha, 0 to 100 scale): 20 | Plant response rating, Lambsquarters (lambsquarters; [7]): 20 | Plant response rating, Jointed goatgra (jointed goatgrass [4]; Rate 62 g/ha, 0 to 100 scale): 10 | Plant response rating, Jointed goatgra (jointed goatgrass [4]; Rate 125 g/ha, 0 to 100 scale): 10 | Plant response rating, Jointed goatgra (jointed goatgrass [4]; [7]): 10 | Plant response rating, I. Ryegrass (Italian ryegrass; Rate 62 g/ha, 0 to 100 scale): 20 | Plant response rating, I. Ryegrass (Italian ryegrass; Rate 125 g/ha, 0 to 100 scale): 5 | Plant response rating, I. Ryegrass (Italian ryegrass; [7]): 40 | Plant response rating, Scentless chamo (scentless chamomile; Rate 62 g/ha, 0 to 100 scale): 10 | Plant response rating, Scentless chamo (scentless chamomile; Rate 125 g/ha, 0 to 100 scale): 0 | Plant response rating, Scentless chamo (scentless chamomile; [7]): 10 | Plant response rating, Jointed goatgra (jointed goatgrass [5]; [8]): 30 | Plant response rating, Jointed goatgra (jointed goatgrass [5]; [9]): 40 | Plant response rating, Jointed goatgra (jointed goatgrass [5]; Rate 250 g/ha, 0 to 100 scale): 60 | Plant response rating, Windgrass (windgrass; [8]): 100 | Plant response rating, Windgrass (windgrass; [9]): 100 | Plant response rating, Blackgrass (blackgrass; Rate 62 g/ha, 0 to 100 scale): 5 | Plant response rating, Blackgrass (blackgrass; Rate 125 g/ha, 0 to 100 scale): 5 | Plant response rating, Blackgrass (blackgrass; [7]): 10 | Plant response rating, Russian thistle (Russian thistle; Rate 62 g/ha, 0 to 100 scale): 0 | Plant response rating, Russian thistle (Russian thistle; Rate 125 g/ha, 0 to 100 scale): 0 | Plant response rating, Russian thistle (Russian thistle; [7]): 0 | Plant response rating, Downy brome (downy brome; Rate 62 g/ha): 0 | Plant response rating, Downy brome (downy brome; Rate 125 g/ha): 0 | Plant response rating, Downy brortie (downy brome; [7]): 0 | Plant response rating, Green foxtail (green foxtail; Rate 62 g/ha, 0 to 100 scale): 10 | Plant response rating, Green foxtail (green foxtail; Rate 125 g/ha, 0 to 100 scale): 15 | Plant response rating, Green foxtail (green foxtail; [7]): 75 | Plant response rating, Kochia (kochia [6]; [8]): 50 | Plant response rating, Kochia (kochia [6]; [9]): 50 | Plant response rating, Kochia (kochia [6]; Rate 250 g/ha, 0 to 100 scale): 40 | Plant response rating, Barley (winter) (winter barley; Rate 62 g/ha, 0 to 100 scale): 10 | Plant response rating, Barley (winter) (winter barley; Rate 125 g/ha, 0 to 100 scale): 10 | Plant response rating, Barley (winter) (winter barley; [7]): 15 | Plant response rating, Deadnettle (deadnettle; [8]): 10 | Plant response rating, Deadnettle (deadnettle; [9]): 10 | Plant response rating, Deadnettle (deadnettle; Rate 250 g/ha, 0 to 100 scale): 40 | Plant response rating, Common poppy (common poppy; Rate 62 g/ha, 0 to 100 scale): 10 | Plant response rating, Comnion poppy (common poppy; Rate 125 g/ha, 0 to 100 scale): 0 | Plant response rating, Common poppy (common poppy; [7]): 0 | Plant response rating, Wild buckwheat (wild buckwheat; [8]): 60 | Plant response rating, Wild buckwheat (wild buckwheat; [9]): 100 | Plant response rating, Wild buckwheat (wild buckwheat; Rate 250 g/ha, 0 to 100 scale): 80 | Plant response rating, Blk nightshade (black nightshade; Rate 62 g/ha, 0 to 100 scale): 20 | Plant response rating, Blk nightshade (black nightshade; Rate 125 g/ha, 0 to 100 scale): 30 | Plant response rating, Blk nightshade (black nightshade; [7]): 50 | Plant response rating, Annual bluegras (annual bluegrass; [8]): 20 | Plant response rating, Annual bluegras (annual bluegrass; [9]): 60 | Plant response rating, Annual bluegras (annual bluegrass; Rate 250 g/ha, 0 to 100 scale): 60
